# Measured values published in patent publication US20150329515A1, “COMPOSITION AND METHOD FOR TREATING OR PREVENTING INFLUENZA VIRUS INFECTION” (National Defense Medical Center, priority 2014, published 2015).
# Like-named read-outs stand apart in the source and are kept apart here.
# Experiments:
# in vitro = details: dog, CC50 (μM)
# [1] = system: Tamiflu-resistant 2009 pandemic influenza A (H1N1) virus (H275Y mutation in neuraminidase); test: in vitro; details: dog, SI (selective index = CC50/EC50)
# [2] = system: Tamiflu-resistant 2009 pandemic influenza A (H1N1) virus (H275Y mutation in neuraminidase); details: for SI (selective index = CC50/EC50), H1N1 Tamiflu-resistant: dog
# [3] = system: Madin-Darby canine kidney (MDCK) cells
# H1N1 influenza virus = test: In vitro anti-H1N1 influenza virus activity (oseltamivir footnote); assay type: cell-based
# [4] = read-out: EC50 (μM), H1N1 Tamiflu-resistant
# [5] = read-out: EC50 (μM), H1N1 Tamiflu-resistant virus
SMILES,CC50 (in vitro),selectivity ratio ([1]; H1N1 Tamiflu-resistant),"EC50 [2, 4]","EC50 [2, 5]",CC50 [3],further results
"COc1c(O)cc2oc(-c3ccc(Br)cc3)cc(=O)c2c1O [Compound 5c, 2-(4-Bromophenyl)-5,7-dihydroxy-6-methoxy-4H-chromen-4-one]",> 300 µM,> 66.7,4.3 µM,,,"SI (selective index = CC50/EC50), H1N1 Tamiflu-resistant [2]: >70.0"
"O=c1cc(-c2ccccc2Br)oc2cc(O)c(O)c(O)c12 [Compound 6a, 2-(2-Bromophenyl)-5,6,7-trihydroxy-4H-chromen-4-one]",> 300 µM,> 33.3,9 µM,9 µM,,selectivity ratio ([1]; H1N1 Tamiflu-resistant virus): > 33.3
O=c1cc(-c2ccc(Cl)cc2)oc2cc(O)c(O)c(O)c12 [Compound 3d],,,,10.2 µM,> 300 µM,
O=C(O)c1ccc(-c2cc(=O)c3c(O)c(O)c(O)cc3o2)cc1 [Compound 3h],,,,39.7 µM,> 300 µM,"SI (selective index = CC50/EC50), H1N1 Tamiflu-resistant virus [2]: >7.6"
"O=C(O)[C@H]1O[C@@H](Oc2cc3oc(-c4ccccc4)cc(=O)c3c(O)c2O)[C@H](O)[C@@H](O)[C@@H]1O [Baicalin, reference compound]",> 300 µM,> 4.3,69.3 µM,,,
"NC(=O)c1ncn([C@@H]2O[C@H](CO)[C@@H](O)[C@H]2O)n1 [Ribavirin, reference compound]",> 300 µM,> 11.7,25.6 µM,25.6 µM,,selectivity ratio ([1]; H1N1 Tamiflu-resistant virus): > 11.7
"COc1c(O)cc2oc(-c3cccc(Br)c3)cc(=O)c2c1O [Compound 5b, 2-(3-Bromophenyl)-5,7-dihydroxy-6-methoxy-4H-chromen-4-one]",> 300 µM,> 66.7,4.3 µM,,,"SI (selective index = CC50/EC50), H1N1 Tamiflu-resistant [2]: >69.8"
O=c1cc(-c2ccc([N+](=O)[O-])cc2)oc2cc(O)c(O)c(O)c12 [Compound 3j],,,,18.1 µM,> 300 µM,"SI (selective index = CC50/EC50), H1N1 Tamiflu-resistant virus [2]: >16.6"
"O=c1cc(-c2cccc(Br)c2)oc2cc(O)c(O)c(O)c12 [Compound 6b, 2-(3-Bromophenyl)-5,6,7-trihydroxy-4H-chromen-4-one]",> 300 µM,> 66.7,4.5 µM,4.5 µM,,"selectivity ratio ([1]; H1N1 Tamiflu-resistant virus): > 66.7; SI (selective index = CC50/EC50), H1N1 Tamiflu-resistant [2]: >66.7"
"O=c1cc(-c2ccc(Br)cc2)oc2cc(O)c(O)c(O)c12 [Compound 6c, 2-(4-Bromophenyl)-5,6,7-trihydroxy-4H-chromen-4-one]",> 300 µM,> 66.7,4.5 µM,4.5 µM,,"selectivity ratio ([1]; H1N1 Tamiflu-resistant virus): > 66.7; SI (selective index = CC50/EC50), H1N1 Tamiflu-resistant [2]: >66.7"
"O=c1cc(-c2ccccc2)oc2cc(O)c(O)c(O)c12 [Baicalein, reference compound]",> 300 µM,> 6.5,46.2 µM,,,selectivity ratio ([1]; H1N1 Tamiflu-resistant virus): > 3.3
O=c1cc(-c2ccccc2Cl)oc2cc(O)c(O)c(O)c12 [Compound 3b],,,,10.2 µM,> 300 µM,
O=c1cc(-c2ccc(F)c(Br)c2)oc2cc(O)c(O)c(O)c12 [Compound 3g],,,,204 µM,> 300 µM,"SI (selective index = CC50/EC50), H1N1 Tamiflu-resistant virus [2]: >1.5"
"COc1cc2oc(-c3ccccc3Br)cc(=O)c2c(O)c1OC [Compound 4a, 2-(2-Bromophenyl)-5-hydroxy-6,7-dimethoxy-4H-chromen-4-one]",133 µM,8.3,16.1 µM,,,
"COc1cc2oc(-c3ccccc3Br)cc(=O)c2c(OC)c1OC [Compound 2k, 2-(2-Bromophenyl)-5,6,7-trimethoxy-4H-chromen-4-one]",128 µM,8,16 µM,,,
O=c1cc(-c2ccccc2)oc2cc(O)c(O)c(O)c12 [Compound 3a],,,,92.3 µM,> 300 µM,
"COc1c(O)cc2oc(-c3ccccc3Br)cc(=O)c2c1O [Compound 5a, 2-(2-Bromophenyl)-5,7-dihydroxy-6-methoxy-4H-chromen-4-one]",> 300 µM,> 34.9,8.6 µM,,,
"COc1cc2oc(-c3cccc(Br)c3)cc(=O)c2c(O)c1OC [Compound 4b, 2-(3-Bromophenyl)-5-hydroxy-6,7-dimethoxy-4H-chromen-4-one]",66.5 µM,> 15.8,4.2 µM,,,
O=c1cc(-c2ccc(Cl)cc2Cl)oc2cc(O)c(O)c(O)c12 [Compound 3e],,,,73.7 µM,> 300 µM,"SI (selective index = CC50/EC50), H1N1 Tamiflu-resistant virus [2]: >4.1"
"CCOC(=O)C1=C[C@@H](OC(CC)CC)[C@H](NC(C)=O)[C@@H](N)C1 [oseltamivir, reference compound]",,,,,,EC50 (H1N1 influenza virus): 32 µM; activity against H1N1 Tamiflu-resistant virus [2]: void of activity
"COc1cc2oc(-c3cccc(Br)c3)cc(=O)c2c(OC)c1OC [Compound 2l, 2-(3-Bromophenyl)-5,6,7-trimethoxy-4H-chromen-4-one]",32.1 µM,> 8,4 µM,,,
"COc1cc2oc(-c3ccc(Br)cc3)cc(=O)c2c(O)c1OC [Compound 4c, 2-(4-Bromophenyl)-5-hydroxy-6,7-dimethoxy-4H-chromen-4-one]",> 300 µM,> 66.7,4.2 µM,,,"SI (selective index = CC50/EC50), H1N1 Tamiflu-resistant [2]: >71.4"
O=c1cc(-c2cccc(Cl)c2)oc2cc(O)c(O)c(O)c12 [Compound 3c],,,,50 µM,> 300 µM,"SI (selective index = CC50/EC50), H1N1 Tamiflu-resistant virus [2]: >6.0"
"COc1cc2oc(-c3ccc(Br)cc3)cc(=O)c2c(OC)c1OC [Compound 2m, 2-(4-Bromophenyl)-5,6,7-trimethoxy-4H-chromen-4-one]",128 µM,0.7,192 µM,,,
O=c1cc(-c2ccc(-c3ccccc3)cc2)oc2cc(O)c(O)c(O)c12 [Compound 3i],,,,72 µM,> 300 µM,"SI (selective index = CC50/EC50), H1N1 Tamiflu-resistant virus [2]: >4.2"
